Results from patent publication US20140088056A1, “CARDIAC GLYCOSIDES ARE POTENT INHIBITORS OF INTERFERON-BETA GENE EXPRESSION” (priority 2010, published 2014).

Experiments:
[1] = tested on: LPS signaling; test: LPS induced gene expression in THP-1 cells; type: cell-based, human; settings: 1 μM
Text: (§1) Total RNA or protein were harvested for the expression analysis of specific genes by RT-PCR or Western blot.
(§2) Specifically, the inventors tested interferon (IFN), tumor necrosis factor (TNF), epidermal growth factor (EGF) signaling, and treatment with lipopolysacchoride (LPS).

[2] = tested on: virus; test: Virus replication; type: cell-based
[3] = tested on: 293T cells; test: Flow cytometry analysis of apoptosis (Annexin V / 7-AAD); type: cell-based, human; settings: bufalin 1 μM 8 hours; staurosporine 4 μM 4 hours
Procedure: The cells were also exposed to 0.1% Triton X-100 for 1 hr before the viability assay as a control (FIG. 16E). Data represent mean values±s.d. (n=3). […] Cells were harvested and washed, then stained with Allophycocyanin (APC) conjugated Annexin V and 7-AAD for 15 minutes and subjected to flow cytometry analysis. The number in each graph is the percentile of Annexin V or 7-AAD positive populations. […] Total protein lysates were prepared and separated on SDS-PAGE for Western blot analysis of PARP1, cleaved PARP1, cleaved Caspase3, LC3B, ATP1a1, and beta-actin expression.
Treated cells and untreated control cells were harvested and washed with PBS, and stained with APC conjugated Annexin V and 7-AAD (both from BD Biosciences) in Annexin V binding buffer (10 mM HEPES, pH 7.4, 140 mM NaCl, 2.5 mM CaCl2) for 15 minutes at room temperature, and then subjected to flow cytometry analysis on a FACSCalibur (BD Biosciences).
Cells were harvested and washed, then stained with Allophycocyanin (APC) conjugated Annexin V and 7-AAD for 15 minutes and subjected to flow cytometry analysis. […] 11 for sturosporine.

[4] = tested on: IFNβ promoter; test: IFNβ reporter induced by over-expression of RIG-I, MAVS or TBK1 in 293T cells; type: cell-based, human
[5] = tested on: patients; settings: huachansu, Meng et al.; cited from earlier work
[6] = tested on: MAP kinase P42/p44; test: EGF induced phosphorylation of MAP kinase in 293T cells; type: cell-based, human; settings: 1 μM
Text: as §1, §2

[7] = tested on: IFNβ promoter; test: cells; type: cell-based, human
Procedure: 293T cells were transfected with the IFNβ promoter driving a firefly luciferase reporter together a reference renilla luciferase reporter plasmid. […] Firefly luciferase activities were measured after another 24 hrs and normalized to that of renilla activities.
293T cells were transfected with an IFNβ promoter driving luciferase reporter, 24 hrs later, increasing amounts (10 nM to 10 uM) of Ouabain (FIG. 8A) or digoxin (FIG. 8B) were added to cells before the Sendai virus infection. Luciferase activities were measured one day later.
Approximately 40,000 293T cells were seeded in a 96 well plate, and co-transfected with IFNβ-110 firefly luciferase reporter and renilla luciferase plasmids (Fitzgerald, K. A. et al. IKKepsilon and TBK1 are essential components of the IRF3 signaling pathway. Nat Immunol 4, 491-6 (2003)). After 24 hrs, cells were treated with various chemicals at the indicated concentrations, and sendai virus infection was initiated one hour later. After another 24 hrs, cells were lysed and subjected to Dual-Glo luciferase assay analysis (Promega) with an Analyst AD plate reader.
Human 293T cells were transfected with the IFNβ promoter driving the expression of luciferase construct. The cells were treated with a library of chemical compounds, and sendai virus (SeV) infection initiated one hour later. Luciferase activity was measured after another 24 hrs of culture. Signals were normalized to the samples not treated with chemicals.

[8] = tested on: virus inducible genes in 293T cells; test: Microarray and RT-PCR of gene expression in 293T cells treated with bufalin and/or SeV; type: cell-based, human
Procedure: 293T cells were transfected with the IFNβ promoter driving a firefly luciferase reporter together a reference renilla luciferase reporter plasmid. […] Firefly luciferase activities were measured after another 24 hrs and normalized to that of renilla activities. […] Experiments were conducted same as in A, but PRDIV, PRDIII/I and PRDII driving luciferase reporter plasmids were used instead.
Total RNA was extracted for the analysis of IFNβ, CCL5, RIG-I, and beta-actin expression by RT-PCR.
Total RNA was extracted with Trizol reagent (invitrogen). RT-PCR and real time quantitative PCR were conducted according to standard protocols. For microarray experiments, RNA was biotin-labeled with the Illumina TotalPrep RNA Amplification Kit (Ambion) and subjected to the Illumina HumanRef-8 v3.0 BeadChip microarray analysis. Immunofluorescent staining was conducted according to standard protocols: cells were fixed with 4% formaldehyde for 10 min, washed with PBS and permeabilized with 0.1% Triton X-100 in PBS, and incubated with primary antibodies over night. Cells were extensively washed before incubating with FITC-conjugated secondary antibody, mounted with DAPI containing media, and subjected to Epifluorescent or confocal microscopy.

[9] = tested on: Namalwa cells; test: RT-PCR of virus induced IFNβ gene expression in Namalwa cells; type: cell-based, human
Text: 6 hrs later, cells were harvested and RNA extracted for RT-PCR analysis for the expression of various genes.

[10] = tested on: IFNβ and CXCL10 gene expression; test: RT-PCR of dsRNA (poly I:C) and dsDNA (poly dA:dT) induced gene expression in 293T cells; type: cell-based, human; settings: 1 uM, 6 hrs

Compound: C[C@]12CC[C@H](O)C[C@H]1CC[C@@H]1[C@H]2CC[C@]2(C)[C@@H](c3ccc(=O)oc3)CC[C@]12O [Bufalin]
- LPS induction of Il-8, TNF and IKBa [1]: minimal
- LPS induced expression of Cxcl10 gene ([1]; LPS 20 ng/ml, 2 hours): impaired
- virus replication [2]: inhibited
- Percentile of Annexin V or 7-AAD positive populations [3]: 1.95
- IFNβ reporter induction by MAVS over-expression [4]: no effect
- IFNβ reporter induction by TBK1 over-expression [4]: little effect
- virus induction of the IFNβ reporter when RIG-I was over-expressed [4]: only slightly reduced
- well tolerated concentration of bufalin in patients [5]: up to 9 nM
- EGF induced phosphorylation of MAP kinase P42/p44 [6]: no effect
- inhibition of IFNβ expression ([7]; 1 uM): more than 90%
- Inhibition % @ 10 μM of virus induced IFNβ expression ([7]; 10 μM, chemical library screen): 99.2%
- IFN expression in the absence of virus infection ([7]; 1 and 10 uM, no virus): weakly induced
- IC50 ([7]; Homo sapiens, HEK-293T, read-out: IC50 for inhibition of virus induced IFNβ expression): 4.3 nM
- IFNβ induction in cells preinfected with virus ([8]; SeV 1.5 hours, then 1 μM for 6 hours): strongly inhibits
- induction of virus-induced genes (IFNβ, IL-8, IFIT1-3, ISG15, OASL, CXCL10, CCL5) ([8]; bufalin plus SeV, 8 hrs): completely blocked
- virus-induced IFNβ gene expression in Namalwa cells [9]: Strong inhibition
- IFNβ and CXCL10 gene expression in response to poly I:C and poly dA:dT [10]: strongly inhibited
